Laboratory results from patent publication US20110229571A1, “Pharmaceutical Compositions Comprising a Selective I1 Imidazoline Receptor Agonist and an Angiotensin II Receptor Blocker” (Abbott Products GmbH, priority 2003, published 2011).

Experiments:
[1] = test system: 2K1C (two-kidney one-clip) hypertensive rats; assay: Blood pressure and heart rate (tail cuff) of two-kidney one-clip renal hypertensive rats after oral treatment; assay type: in vivo, rat; settings: for diastolic blood pressure (DBP) / mean blood pressure (MBP) / systolic blood pressure (SBP) / heart rate: Mox 1 mg/kg, Epro 3 mg/kg or both; for diastolic blood pressure (DBP) / mean blood pressure (MBP) / systolic blood pressure (SBP): mean ± SE of 12 animals; for heart rate: n 12; for maximal decrease in the diastolic blood pressure / maximal decrease in the systolic blood pressure: maximal effect 2 hours after oral administration, moxonidine 1 mg/kg or eprosartan 3 mg/kg; for effect on blood pressure (in words): oral, moxonidine 1 mg/kg, eprosartan 3 mg/kg or both
Text: The “two-kidney one-clip” technique results in renal ischemia and in the development of hypertension. In the rat, this technique produces chronic changes, similar to those in human beings with unilateral renal artery stenosis. 2K1C rats represent a pressure overload model of hypertension, characterized by the activation of the renin-angiotensin aldosterone system (RAAS) and peripheral vasoconstriction. This model is widely used as a high renin model of hypertension for the evaluation of angiotensin converting enzyme (ACE) inhibitors and angiotensin receptor antagonists (ARBs). Animals: Male Sprague-Dawley CFY rats were used. Animals were fed commercial laboratory rat food pellet and allowed to drink tap water ad libitum throughout the experiments. Two-kidney one-clip hypertension: Under ether anesthesia an incision was made on the right side of the dorsalvertebrocostal angle. After light exterioration of the right kidney a silver clip was placed on the renal artery, close to its origin from the aorta. The left kidney was not disturbed. Measurement of blood pressure and heart rate: Blood pressure and heart rate were measured by the tail cuff method (Model 229, IITC Inc., CA, USA) from the 1st week after clipping the renal artery, once a week for 6 weeks. At the time of blood pressure measurements the animals were minimally warmed to an ambient temperature of 29° C. using a thermostated warming chamber. Experimental protocol: Animals developing stable hypertension during the 6-week-study period were used for the drug treatments. 12 animals with established hypertension were used for each treatment group as follows: • Vehicle • Moxonidine 1 mg/kg • Eprosartan 3 mg/kg • Moxonidine 1 mg/kg+Eprosartan 3 mg/kg The animals were treated orally and the blood pressure was measured 30 min, 1 h, 2 h and 4 hours there after. Different treatments were applied randomly during the day. Statistical analysis: Parameters were expressed as mean±standard error of the mean (SE) and after analysis of variance were compared by means of the modified ‘t’-statistical method of Wallenstein et al. [Wallenstein S et al. (1980) Circ. Res. 47:1-9].

Zucker rats = assay: Oral glucose tolerance test in Zucker rats after 3 weeks of treatment; assay type: in vivo, rat
Experimental: The effect of a combined administration of Moxonidine as an example for a selective Imidazoline I1 receptor agonist and Eprosartan as an example for an Angiotensin II At1 receptor antagonist was analyzed by measuring their influence on plasma glucose level in “Zucker rats”. The “Zucker rat” is a model of impaired glucose tolerance and is widely used to analyze compound effects on glucose tolerance. Animals: Male Zucker rats (HsdOla fa/fa) from Harlan were used in the experiments. The animals were fed commercial lab chow and had unlimited access to tap water throughout the experiment. Experimental protocol: Animals were treated for 3 weeks with either vehicle or the active compounds. Moxonidine was applied via the drinking water. Eprosartan was administered daily into the stomach via a cannula. Ten animals were used in each of the following treatment groups: • Vehicle • Moxonidine 1 mg/kg • Moxonidine 1 mg/kg+Eprosartan 3 mg/kg • Moxonidine 1 mg/kg+Eprosartan 30 mg/kg • Moxonidine 1 mg/kg+Eprosartan 100 mg/kg At the end of the drug treatment period the animals were subjected to an oral glucose tolerance test. Animals were given a solution containing 2 g glucose via a cannula into the stomach. Blood samples were drawn before and at 30, 60, 90, and 120 minutes after the glucose load by tail vein cannulation and analyzed for plasma glucose levels. Statistical analysis: Parameters were expressed as mean±standard error of the mean (SE) and after analysis of variance were compared by means of T-Test.

[2] = 30 min after oral administration

SMILES | diastolic blood pressure (DBP) [1, 2] [mmHg] | mean blood pressure (MBP) [1, 2] [mmHg] | systolic blood pressure (SBP) [1, 2] [mmHg] | heart rate [1, 2] [beats/min] | diastolic blood pressure (DBP) ([1]; 1 h after oral administration) [mmHg] | mean blood pressure (MBP) ([1]; 1 h after oral administration) [mmHg] | systolic blood pressure (SBP) ([1]; 1 h after oral administration) [mmHg] | heart rate ([1]; 1 h after oral administration) [beats/min] | diastolic blood pressure (DBP) ([1]; 2 h after oral administration) [mmHg] | mean blood pressure (MBP) ([1]; 2 h after oral administration) [mmHg] | systolic blood pressure (SBP) ([1]; 2 h after oral administration) [mmHg] | heart rate ([1]; 2 h after oral administration) [beats/min] | diastolic blood pressure (DBP) ([1]; 4 h after oral administration) [mmHg] | mean blood pressure (MBP) ([1]; 4 h after oral administration) [mmHg] | systolic blood pressure (SBP) ([1]; 4 h after oral administration) [mmHg] | heart rate ([1]; 4 h after oral administration) [beats/min] | maximal decrease in the diastolic blood pressure [1] [%] | maximal decrease in the systolic blood pressure [1] [%] | effect on blood pressure (in words) [1] | further results
CCCCc1ncc(/C=C(\Cc2cccs2)C(=O)O)n1Cc1ccc(C(=O)O)cc1 [Eprosartan] | 111 ± 2.8 | 117 ± 2.8 | 131 ± 2.8 | 370 ± 6.9 | 109 ± 2.3 | 116 ± 2.5 | 131 ± 3.1 | 375 ± 7.4 | 98 ± 4.8 | 105 ± 4.6 | 119 ± 4.5 | 378 ± 4.3 | 106 ± 6.6 | 112 ± 6.6 | 125 ± 6.1 | 376 ± 5.2 | 21 | 19 | significantly decreased the blood pressure | 
COc1nc(C)nc(Cl)c1NC1=NCCN1 [Moxonidine, 4-Chloro-5-[(4,5-dihydro-1H-imidazol-2-yl)-amino]-6-methoxy-2-methylpyrimidine] | 118 ± 3.1 | 124 ± 3.2 | 136 ± 3.6 | 383 ± 5.3 | 110 ± 3.3 | 117 ± 2.6 | 130 ± 2.1 | 376 ± 6.7 | 100 ± 4.8 | 107 ± 4.2 | 122 ± 3.5 | 368 ± 5.9 | 109 ± 3.8 | 116 ± 3.5 | 129 ± 3.1 | 384 ± 6.0 | 19 | 16 | significantly decreased the blood pressure | plasma glucose level (Zucker rats; 0 min (before glucose challenge), 1 mg/kg Mox, mean ± SE of 10 animals): 97 ± 6 mg/dL; plasma glucose AUC (area under the curve) (Zucker rats; 0-120 min after glucose challenge, 1 mg/kg Mox): 24960 ± 1268 mg·min/dL; plasma glucose level (Zucker rats; 30 min after glucose challenge, 1 mg/kg Mox): 240 ± 15 mg/dL; plasma glucose level (Zucker rats; 60 min after glucose challenge, 1 mg/kg Mox): 211 ± 15 mg/dL; plasma glucose level (Zucker rats; 90 min after glucose challenge, 1 mg/kg Mox): 221 ± 11 mg/dL; plasma glucose level (Zucker rats; 120 min after glucose challenge, 1 mg/kg Mox): 224 ± 14 mg/dL; effect on plasma glucose levels after oral glucose challenge (in words) (Zucker rats; Moxonidine 1 mg/kg alone or with Eprosartan 3, 30, 100 mg/kg): significant reduction in plasma glucose levels at 60 and 90 minutes
